{"source": "patent US6596271B2", "about": "“Insect control method with genetically engineered biopesticides” (priority 1996, dated 2003)", "key": {"[1]": {"test_system": "neonate larvae of H. virescens", "assay": "Time-response of neonate larvae to NPVs with low concentrations of classical insecticides (droplet feeding, treated vials)", "assay_type": "in vivo, Heliothis virescens", "conditions": "2000 PIBs and/or LC10-LC20 (24 h) insecticide", "from_the_text": "For example, two of the compounds studied were pyrethroids, […]. In our study we found a subadditive response when low rates of allethrin or cypermethrin were combined with wild-type AcNPV."}, "[2]": {"test_system": "neonate larvae of H. virescens", "assay_type": "in vivo, Heliothis virescens", "conditions": "at the μg insecticide/vial of Table 4", "from_the_text": "As indicated previously, these studies have emphasized the effects of combinations of viral and chemical insecticides on LT50, but the same approaches could be applied to dose as well as time. […] In practice a variety of factors would influence the rates used, including the cost and availability of the biological and chemical pesticide, environmental concerns, level of resistant populations in the field, and other pest management considerations.\nTwo of the compounds studied were pyrethroids, allethrin (Type I pyrethroid) or cypermethrin (Type II pyrethroid). In our study we found a subadditive response when low rates of allethrin or cypermethrin were combined with wild-type AcNPV."}}, "note": "Marks after values point to notes of the source that are not given here."}
{"smiles": "Clc1ccc(C(c2ccc(Cl)cc2)C(Cl)(Cl)Cl)cc1", "note": "[DDT]", "values": [{"measurement": "Actual Kill Time (LT50, h)", "setting": "[1]", "result": 96.7, "unit": "h"}, {"measurement": "LT10 (h; 95% CL)", "setting": "[1]", "result": "12.6 (3.90-23.8) h"}, {"measurement": "LT50 (h; 95% CL)", "setting": "[1]", "result": "96.7 (73.5-165) h"}, {"measurement": "LT90 (h; 95% CL)", "setting": "[1]", "result": "740 (318-10320) h"}, {"measurement": "% Mortality at 24 hours", "setting": "[2]", "result": 18.8, "unit": "%"}]}
{"smiles": "CCCSP(=O)(OCC)Oc1ccc(Br)cc1Cl", "note": "(centres unmarked) [Profenofos]", "values": [{"measurement": "Actual Kill Time (LT50, h)", "setting": "[1]", "result": 401, "unit": "h"}, {"measurement": "LT10 (h; 95% CL)", "setting": "[1]", "result": "8.10 (2.61-17.5) h"}, {"measurement": "LT50 (h; 95% CL)", "setting": "[1]", "result": "401 (260-676) h"}, {"measurement": "% Mortality at 24 hours", "setting": "[2]", "result": 16.3, "unit": "%"}]}
{"smiles": "C=CCC1=C(C)C(OC(=O)C2C(C=C(C)C)C2(C)C)CC1=O", "note": "(centres unmarked) [Allethrin]", "values": [{"measurement": "Actual Kill Time (LT50, h)", "setting": "[1]", "result": 132, "unit": "h"}, {"measurement": "LT10 (h; 95% CL)", "setting": "[1]", "result": "17.3 (11.5-22.5) h"}, {"measurement": "LT50 (h; 95% CL)", "setting": "[1]", "result": "132 (106-185) h"}, {"measurement": "LT90 (h; 95% CL)", "setting": "[1]", "result": "1000 (552-2680) h"}, {"measurement": "% Mortality at 24 hours", "setting": "[2]", "result": 14.0, "unit": "%"}]}
{"smiles": "O=S1OCC2C(CO1)C1(Cl)C(Cl)=C(Cl)C2(Cl)C1(Cl)Cl", "note": "(centres unmarked) [Endosulfan]", "values": [{"measurement": "Actual Kill Time (LT50, h)", "setting": "[1]", "result": 73.3, "unit": "h"}, {"measurement": "LT10 (h; 95% CL)", "setting": "[1]", "result": "10.4 (3.75-17.3) h"}, {"measurement": "LT50 (h; 95% CL)", "setting": "[1]", "result": "73.3 (61.0-90.3) h"}, {"measurement": "LT90 (h; 95% CL)", "setting": "[1]", "result": "514 (296-1580) h"}, {"measurement": "% Mortality at 24 hours", "setting": "[2]", "result": 17.5, "unit": "%"}]}
{"smiles": "CNC(=O)ON=C(C)SC", "note": "[Methomyl]", "values": [{"measurement": "Actual Kill Time (LT50, h)", "setting": "[1]", "result": 358, "unit": "h"}, {"measurement": "LT10 (h; 95% CL)", "setting": "[1]", "result": "4.84 (0.12-13.1) h"}, {"measurement": "LT50 (h; 95% CL)", "setting": "[1]", "result": "358 (182-4070) h"}, {"measurement": "LT90 (h; 95% CL)", "setting": "[1]", "result": "26563 (2870-1.25 × 10^8) h"}, {"measurement": "% Mortality at 24 hours", "setting": "[2]", "result": 20.8, "unit": "%"}]}
{"smiles": "CC1(C)C(C=C(Cl)Cl)C1C(=O)OC(C#N)c1cccc(Oc2ccccc2)c1", "note": "(centres unmarked) [Cypermethrin]", "values": [{"measurement": "Actual Kill Time (LT50, h)", "setting": "[1]", "result": 124, "unit": "h"}, {"measurement": "LT10 (h; 95% CL)", "setting": "[1]", "result": "17.1 (7.99-24.8) h"}, {"measurement": "LT50 (h; 95% CL)", "setting": "[1]", "result": "124 (97.5-195) h"}, {"measurement": "LT90 (h; 95% CL)", "setting": "[1]", "result": "902 (436-4190) h"}, {"measurement": "% Mortality at 24 hours", "setting": "[2]", "result": 11.8, "unit": "%"}]}
